Experimental data taken from the NIST ThermoML archive (doi:10.1021/je100033s).
Numbers after ± are expanded uncertainties.

Columns and labels:
[1] = Liquid; for mass density: 101.33 kPa, Pycnometric method; for Normal boiling temperature: Ebulliometric method (Recirculating still)
[2] = refractive index (Na D-line) (dimensionless); details: 101.33 kPa, Liquid, Standard Abbe refractometry

| SMILES | mass density ([1]; 293.1 K) | Normal boiling temperature [1] | refractive index ([2]; 293.1 K) | mass density ([1]; 298.1 K) | refractive index ([2]; 298.1 K) |
| --- | --- | --- | --- | --- | --- |
| CC#N [acetonitrile] | 783.1 ± 0.7 kg/m3 | 81.50 ± 0.2 °C | 1.3449 ± 0.0007 |  |  |
| CCCO [propan-1-ol] | 804 ± 0.7 kg/m3 | 97.09 ± 0.2 °C | 1.386 ± 0.0007 |  |  |
| C[S+](C)[O-] [dimethyl sulfoxide] |  | 188.91 ± 0.2 °C |  | 1096.1 ± 1 kg/m3 | 1.4775 ± 0.0007 |
